This is an account of results in a melting point compilation (Tetko et al.; mined from patent text by program, amines drawn as free bases though some values may be those of a salt).

In general, melting point refers to the temperature, or range, at which the solid turns liquid.

On to `Cc1c(CC(=O)NS(=O)(=O)c2ccccc2)c2cc(OCc3ccc4ccccc4n3)ccc2n1Cc1ccc(Cl)cc1`, for which the melting point was in the range of 194 to 197 °C.
`Cc1c(-c2ccccc2)n(-c2cccc(S(C)(=O)=O)c2)c(-c2ccccc2)cc1=O` yielded a melting point of 246 to 248 °C.
`Cc1ccnc(N2CCN(CCc3c(C)n4c5c(cc(Br)cc35)CCC4)CC2)c1` had a melting point of 200 °C.
In the case of `O=C1CN(C(=O)N2CCOCC2)c2ccccc2N1` it was 180 °C.
The molecule `N#CSCc1ccc(C(=O)c2ccc(Cl)cc2)cc1` yielded a melting point of 129 to 131 °C.
Molecule `CCCn1c(=O)c2c(nc(/C=C/c3ccc(OCOC)c(OCOC)c3)n2C)n(CCC)c1=O` registered a melting point of 172 to 173 °C.
`CC(=O)C=Cc1ccc(Cl)c(Cl)c1` displayed a melting point of 53 to 55 °C.
On to `COc1ccc(CONC(=O)Cn2nnnc2S)cc1`, for which the melting point lay within 167 to 168 °C.
Take `C=CCOc1cc(OCc2ccc3ccccc3c2)cc(C(=O)c2nccs2)c1`: the melting point was in the range of 65 to 67 °C.
Consider `Cc1nc2c(O[C@@H]3c4ccccc4C[C@H]3OS(C)(=O)=O)cccn2c1C=O` (relative stereo), for which the melting point was in the range of 158 to 160 °C.
For the molecule `C[C@]12CC[C@H]3[C@@H](CCC4=CC(=O)CC[C@@H]43)[C@@H]1CCC21CC(O)CO1` (some centres not stated), the melting point is 149 to 154 °C.
`CCCN(CCC)C(=O)Cc1ccc(OCc2ccccc2)c([N+](=O)[O-])c1` had a melting point of 67 to 68 °C.
In turn, `O=C1CCC2CCC(=O)N12` came in with a melting point of 179 to 182 °C.
Regarding `Nc1cc(=O)n(Cc2ccc(Br)c(Cl)c2)[nH]1`, the melting point lay in the range of 145 to 146 °C.
In the case of `C[C@H]1CCCC(C)(C)[C@@H]1C(=O)c1ccco1` it was 81 to 84 °C.
As to `Cc1cc(OCc2coc(/C=C/c3ccc(Cl)cc3)n2)ccc1CS(=O)CCc1ccnn1C` (configuration not stated), the melting point was 169 to 171 °C.
For `COc1cc(-c2cn(Cc3ccccc3)c(=O)c3ccccc23)cc(OC)c1OC`, the melting point was 166 to 168 °C.
In the case of `N#CCC1CCN(c2ccc(N3C[C@@H](Cn4cc(C#N)nn4)OC3=O)cc2F)CC1` it was 200 to 202 °C; in that of `COCCCn1nnnc1-c1cc(-c2ccc(C(F)(F)F)cc2)c(O)cc1O`, 98 to 104 °C.
Molecule `CCCCCCCSc1nn2c(=O)c(C)c(O)nc2s1` yielded a melting point of 141 to 143 °C.
Turning to `Clc1ccc(-c2cccnc2)cn1`, the melting point was 113 to 115 °C.
The molecule `CCCCCCCCCCCCCCC(O)C(O)C(N)CO` (configuration not stated) displayed a melting point of 132 to 134 °C.
As to `CCOC(=O)CNc1c([N+](=O)[O-])cc([N+](=O)[O-])c2ccccc12`, the melting point was more than 305 °C.
Take `CN1CCN(CC2COc3cc4ncnc(Nc5cccc(Br)c5)c4cc3O2)CC1` (configuration not stated): the melting point lay in the range of 182 to 189 °C.
Turning to `CCCc1c(OCCCCCc2ccccc2CCC(=O)O)ccc2c1OCCC2=O`, the melting point is 94 to 96 °C.
For the molecule `O=c1[nH]sc2nc(N3CCCCC3)ncc12`, the melting point was in the range of 268 to 269 °C.
As to `Cc1cc(=O)[nH]nc1-c1ccc2nc(C3CC3)n(Cc3ccc(-c4ccccc4-c4nnn[nH]4)cc3)c2c1`, the melting point was determined as 225 °C.
Molecule `O=C(Nc1nc2ccc(Sc3cnc4ncccn34)cc2s1)c1ccccc1` displayed a melting point of more than 260 °C.
`CN1CC(Oc2ccc(Nc3cc(Br)cn(C)c3=O)nc2)C1` returned a melting point of 100 to 101 °C.
Consider `COc1ccc(C2=C(c3ccc(S(N)(=O)=O)cc3)CCC2)cc1F`, for which the melting point lay within 170 to 171 °C.
In the case of `COc1cc(C(=O)NS(=O)(=O)c2ccccc2Cl)ccc1Cn1cc(CCC(=O)N(C)C)c2ccc(CCC(=O)N(C)C)cc21`, the melting point is 134 to 137 °C.
Molecule `CCOCc1nc2c(N)nc3ccccc3c2n1CC1CCN(C)O1` (configuration not stated) had a melting point of 173 to 174 °C.
`COc1cc(-c2cc(O)c(SCc3ccccc3)c(=O)o2)cc(OC)c1OC` displayed a melting point of 156 to 157 °C.
Turning to `c1ccc2oc(-c3nc(COc4ccc(CCCn5ccnc5)cc4)co3)cc2c1`, the melting point fell in the range of 122 to 123 °C.
`CN1C(=O)CC[C@]2(C)c3ccc(Sc4ccc5cc(F)ccc5n4)cc3CC[C@@H]12` yielded a melting point of 152 to 155 °C.
`O=CCOc1ccc(Cl)cc1` came in with a melting point of 122 to 128 °C.
In the case of `Nc1c(CCO)cccc1C(=O)c1ccc(Cl)cc1` it was 111 to 126 °C; in that of `Cc1cccc(C(C)C)c1NC(=O)NCC1(c2ccccc2)CCCC1`, 157 to 159 °C; in that of `CCOc1ccc(NS(=O)(=O)c2ccc(NN=CCCCN3C(=O)c4ccccc4C3=O)cc2)cc1`, 156 to 158 °C.
In the case of `CC(C)(NC(=O)CCSC(=O)c1ccccc1)C(=O)O` it was 142 to 143 °C; in that of `NC(=O)c1ccc(C2CCCCCC2)c(Cl)c1`, 152 to 155 °C; in that of `CCC(=O)SCC(Cc1ccccc1)C(=O)Nc1cccc(C(=O)O)c1C` (configuration not stated), 163 to 165 °C.
`C=CCOc1ccc(C(C)=O)c(NC(C)=O)c1`: the melting point is 63 to 64 °C.
On to `CC(CC(=O)c1cccc(C(F)(F)F)c1)C(=O)O` (configuration not stated), for which the melting point lay within 90 to 91 °C.
In turn, `Cc1cc(C(=O)N(C2CCCCC2)C2CCCC2)ccc1Cn1cnc2ncccc21` showed a melting point of 191 to 192 °C.
In the case of `CC(=O)NC[C@H]1CN(c2ccc(C(=O)c3cc(C#N)c4ccccn34)cc2)C(=O)O1` it was 255 to 257 °C.
In the case of `O=S(=O)(NC[C@@H](CO)NC(c1ccccc1)(c1ccccc1)c1ccccc1)c1ccc(Oc2ccccc2)cc1` it was 67 to 70 °C.
Turning to `COc1ccccc1-n1c(=O)[nH]c2c(C(N)=O)nc(N[C@@H]3CCNC3)nc21`, the melting point was more than 400 °C.
The molecule `Cn1nc(-c2ccccc2)c2c(=O)[nH]c(N)nc21` registered a melting point of more than 300 °C.
The molecule `CN1CC(C(=O)c2oc(C3CCS(=O)(=O)CC3)cc2Cc2ccc(F)cc2)=C(O)C1=O` displayed a melting point of 200 to 203 °C.
In the case of `CC(C)(C)OC(=O)Oc1ccc(C(=O)OCc2ccccc2)cc1` it was 81 °C.
In the case of `Cc1ccc(-c2c(Cl)ncnc2NS(=O)(=O)c2ccc(C(C)(C)COC3CCCCO3)cc2)cc1` (configuration not stated), the melting point lay within 141 to 144 °C.
For the molecule `CCCCOc1ccc(CC(C)C(=O)Oc2ccc(-c3ccc(C#N)cc3)cc2)cc1` (configuration not stated), the melting point was in the range of 76.1 to 77.1 °C.
Regarding `CCOC(=O)C1C(=O)C(C(=O)c2ccc(Cl)cc2[N+](=O)[O-])C(=O)CC1CC(C)SCC` (configuration not stated), the melting point lay in the range of 102 to 104 °C.
Molecule `Cc1cc(C(=O)N2Cc3cccn3Cc3ccccc32)ccc1NC(=O)c1ccccc1C` had a melting point of 125 to 130 °C.
In the case of `CNC(=S)NC(c1ccccc1)c1ccccc1`, the melting point was 152 to 154 °C.
Turning to `CN(CCN1CCN(Cc2ccc(C(F)(F)F)cc2)CC1)C[C@@]1(C)Cn2cc([N+](=O)[O-])nc2O1`, the melting point fell in the range of 102 to 104 °C.
In the case of `CCCC(=O)c1nc(CCC)[nH]c1C` it was 94 to 95 °C; in that of `O=C(O)c1cccc(Nc2nc(Oc3ccccc3)nc(Oc3ccc(Cl)cc3)n2)c1`, 244 to 247 °C.
In turn, `COc1cc(OC)c(-c2cc3ccccc3n2C)cc1C=CC(=O)c1ccc(S(=O)(=O)N(C)C)cc1` showed a melting point of 120 to 122 °C.
The molecule `CC(COc1ccc(C(N)=O)c(O)c1)NCC(O)c1ccccc1` (configuration not stated) showed a melting point of 171 to 173 °C.
In turn, `COC(=O)c1cc(NC(=O)OC(C)(C)C)c(N)cc1I` had a melting point of 60 to 78 °C.
`NC(=O)c1c(F)cc(-c2ccc3nnn(Cc4ccc5ncccc5c4)c3n2)cc1F` showed a melting point of 272 to 275 °C.
On to `CC(C)c1cccc(C(C)C)c1NC(=O)Nc1ccccc1C(=O)NC1CCN(C(c2ccccc2)c2ccccc2)CC1`, for which the melting point came out at 118 °C.
In turn, `CCC(C)n1nc(C)n(-c2ccc(N3CCCN(C(=O)OC(C)(C)C)CC3)cc2)c1=O` (configuration not stated) yielded a melting point of 119 to 120 °C.
The molecule `CN1CCN(c2cccc(-c3cnn4c(N)c(-c5ccccc5Cl)cnc34)c2)CC1` gave a melting point of 200 to 203 °C.
In the case of `O=C1CCC2=C1C(c1ccc(F)c(Br)c1)C1=C(CCS1)N2` (configuration not stated) it was more than 260 °C; in that of `COC(=O)c1sc(-c2ccccc2)c(N)c1N`, 148 to 150 °C.
Turning to `CC1Oc2ccc(OCc3nc4cc(F)ccc4s3)cc2C(=O)C1Cc1cccc(NS(=O)(=O)C(F)(F)F)c1` (configuration not stated), the melting point was in the range of 183 to 185 °C.
`CCCCCCCCCCCCc1ccc(NC(C)=O)c([N+](=O)[O-])c1` displayed a melting point of 71 to 73 °C.
For the molecule `COC(=O)NC(CCSC)C(N)=O` (racemic), the melting point was in the range of 93 to 94 °C.
`COc1ccc(-c2nc(C)c(C(C)=O)[nH]2)cc1` returned a melting point of 162 to 165 °C.
Molecule `CC(=Cc1ccc(Oc2cccnc2)cc1)C(=O)O` showed a melting point of 191 to 194 °C.
The molecule `CC(Oc1ccc(-c2ccc(-c3c(Cc4ccccc4)oc4ccccc34)cc2)cc1)C(=O)O` (configuration not stated) displayed a melting point of 112 to 114 °C.
Molecule `Cc1cc2cc(CN3CCCCCC3)cnc2cc1NC(=O)c1ccc(-c2ccc(F)cc2)cc1F` displayed a melting point of 170 °C.
Consider `C=CCc1ccc(OCc2ccc(OC)cc2)cc1`, for which the melting point fell in the range of 59 to 61 °C.
In the case of `COc1ccc(-c2cc(F)c(F)cc2-c2ccc(S(C)(=O)=O)cc2)cc1C` it was 160 to 162 °C; in that of `O=C(c1[nH]ncc1-c1csc(Nc2ncccn2)n1)C1CC1`, 244 °C.
The molecule `Cc1ccc(C)n1-c1cc2c(cc1C(F)(F)F)[nH]c(=O)c(=O)n2CCC(=O)NCc1ccccc1` returned a melting point of 260 to 262 °C.
Regarding `Cc1nc(-c2cc(Cl)ccc2Cl)n2c1nnc1ccc(F)cc12`, the melting point lay in the range of 165 to 168 °C.
On to `Cc1ccc(N2CCN(CCCc3[nH]nc4c3CCC4)CC2)cc1`, for which the melting point is 101 to 102 °C.
Consider `CC(=O)Nc1ccc(S(=O)(=O)Nc2nc(=O)n(C3CC3)cc2C)cc1`, for which the melting point was 176 to 181 °C.
Turning to `CC(C)(C)CC(=O)c1c(-c2ccc3c(Br)c(OCC(=O)O)ccc3c2)sc2ccccc12`, the melting point lay in the range of 206 to 207 °C.
In the case of `CC(=O)N[C@H]1C[C@H](C)N(C(=O)OC(C)(C)C)C1`, the melting point lay in the range of 108 to 110 °C.
On to `CNC(=O)N(O)Cc1cccs1`, for which the melting point came out at 108 °C.
Consider `Cn1cc(C(=O)NCc2ccc(Cl)cc2)c(=O)c2cc(CN3CC[C@@H](O)C3)oc21`, for which the melting point was in the range of 189 to 190 °C.
`Cc1noc(-c2cn(-c3cccc(-c4ccccc4)c3)cn2)n1` showed a melting point of 163 to 165 °C.
